Data as given in the NIST ThermoML archive (doi:10.1021/acs.jced.9b00752).
Numbers after ± are expanded uncertainties.

Experiment: mn = molality of the nth substance listed, in mol/kg
Conditions: 100 kPa, Liquid, Vibrating tube method

O=C(O)[C@@H]1CCCN1 [L-proline] + O
mass density [kg/m3]
Conditions | 273.65 K | 274.15 K | 274.65 K | 275.15 K | 275.65 K | 276.15 K | 276.65 K | 277.15 K | 277.65 K | 278.15 K
m1 = 0.0132 | 1000.34 ± 0.11 | 1000.37 ± 0.11 | 1000.39 ± 0.11 | 1000.4 ± 0.11 | 1000.41 ± 0.11 | 1000.42 ± 0.11 | 1000.43 ± 0.11 | 1000.43 ± 0.11 | 1000.43 ± 0.11 | 1000.42 ± 0.11
m1 = 0.0326 | 1001.02 ± 0.11 | 1001.05 ± 0.11 | 1001.07 ± 0.11 | 1001.08 ± 0.11 | 1001.09 ± 0.11 | 1001.1 ± 0.11 | 1001.11 ± 0.11 | 1001.11 ± 0.11 | 1001.1 ± 0.11 | 1001.09 ± 0.11
m1 = 0.0542 | 1001.77 ± 0.11 | 1001.79 ± 0.11 | 1001.81 ± 0.11 | 1001.82 ± 0.11 | 1001.84 ± 0.11 | 1001.84 ± 0.11 | 1001.84 ± 0.11 | 1001.85 ± 0.11 | 1001.84 ± 0.11 | 1001.83 ± 0.11
m1 = 0.0692 | 1002.29 ± 0.11 | 1002.31 ± 0.11 | 1002.32 ± 0.11 | 1002.34 ± 0.11 | 1002.34 ± 0.11 | 1002.35 ± 0.11 | 1002.35 ± 0.11 | 1002.35 ± 0.11 | 1002.34 ± 0.11 | 1002.33 ± 0.11
m1 = 0.0808 | 1002.69 ± 0.11 | 1002.71 ± 0.11 | 1002.73 ± 0.11 | 1002.74 ± 0.11 | 1002.75 ± 0.11 | 1002.75 ± 0.11 | 1002.75 ± 0.11 | 1002.75 ± 0.11 | 1002.74 ± 0.11 | 1002.73 ± 0.11
m1 = 0.1014 | 1003.41 ± 0.11 | 1003.43 ± 0.11 | 1003.45 ± 0.11 | 1003.46 ± 0.11 | 1003.46 ± 0.11 | 1003.46 ± 0.11 | 1003.46 ± 0.11 | 1003.46 ± 0.11 | 1003.45 ± 0.11 | 1003.43 ± 0.11
m1 = 0.1196 | 1004.09 ± 0.11 | 1004.11 ± 0.11 | 1004.12 ± 0.11 | 1004.13 ± 0.11 | 1004.13 ± 0.11 | 1004.13 ± 0.11 | 1004.13 ± 0.11 | 1004.13 ± 0.11 | 1004.12 ± 0.11 | 1004.1 ± 0.11
m1 = 0.1326 | 1004.5 ± 0.11 | 1004.52 ± 0.11 | 1004.53 ± 0.11 | 1004.54 ± 0.11 | 1004.54 ± 0.11 | 1004.54 ± 0.11 | 1004.54 ± 0.11 | 1004.54 ± 0.11 | 1004.52 ± 0.11 | 1004.51 ± 0.11
m1 = 0.1555 | 1005.27 ± 0.15 | 1005.29 ± 0.15 | 1005.3 ± 0.15 | 1005.3 ± 0.15 | 1005.3 ± 0.15 | 1005.3 ± 0.15 | 1005.3 ± 0.15 | 1005.29 ± 0.15 | 1005.28 ± 0.15 | 1005.26 ± 0.15
m1 = 0.1568 | 1005.41 ± 0.15 | 1005.42 ± 0.15 | 1005.43 ± 0.15 | 1005.44 ± 0.15 | 1005.44 ± 0.15 | 1005.44 ± 0.15 | 1005.43 ± 0.15 | 1005.43 ± 0.15 | 1005.41 ± 0.15 | 1005.39 ± 0.15
m1 = 0.1835 | 1006.23 ± 0.11 | 1006.25 ± 0.11 | 1006.25 ± 0.11 | 1006.26 ± 0.11 | 1006.26 ± 0.11 | 1006.25 ± 0.11 | 1006.25 ± 0.11 | 1006.24 ± 0.11 | 1006.22 ± 0.11 | 1006.2 ± 0.11
m1 = 0.2076 | 1007.04 ± 0.11 | 1007.05 ± 0.11 | 1007.05 ± 0.11 | 1007.05 ± 0.11 | 1007.05 ± 0.11 | 1007.04 ± 0.11 | 1007.04 ± 0.11 | 1007.03 ± 0.11 | 1007.01 ± 0.11 | 1006.99 ± 0.11
m1 = 0.2212 | 1007.72 ± 0.12 | 1007.73 ± 0.12 | 1007.73 ± 0.12 | 1007.73 ± 0.12 | 1007.72 ± 0.12 | 1007.72 ± 0.12 | 1007.71 ± 0.12 | 1007.7 ± 0.12 | 1007.68 ± 0.12 | 1007.66 ± 0.12
